Values of other authors, collected in patent US20150328277A1 (Teva Pharmaceutical Industries, Ltd., priority 2012, published 2015).
Where two headings read alike, the source gives them in different places.

Columns and labels:
[1] = test system: relapsing multiple sclerosis; details: administered orally; clinical trial
[2] = test system: experimental autoimmune encephalomyelitis (EAE); details: orally administered; mice
[3] = test system: experimental autoimmune encephalomyelitis (EAE); details: orally administered; rats
multiple sclerosis = details: 20 mg/day subcutaneous (s.c.); MS patients

L-glutamic acid polymer with L-alanine, L-lysine, L-tyrosine, acetate (salt) [glatiramer acetate]
relapse rate or other clinical MRI parameters of disease activity [1]: did not affect relapse rate or other clinical MRI parameters of disease activity
induction of EAE [2]: inhibited the induction of experimental autoimmune encephalomyelitis (EAE)
induction of EAE [3]: inhibited the induction of experimental autoimmune encephalomyelitis (EAE)
total number of enhancing lesions as measured by MRI (multiple sclerosis): reduce the total number of enhancing lesions
